Experimental data published in the CheMixHub drug solubility set.

Experiment: xn = mol fraction of the nth substance listed, in the solute-free solvent

CN1CCC(N(Cc2cccs2)c2ccccc2)CC1 + CCO + O
solubility (g/100 g solution)
Details	278.15 K	283.15 K	288.15 K	293.15 K	298.15 K	303.15 K	308.15 K	313.15 K	318.15 K	323.15 K
x2 = 0.04165	0.102	0.109	0.117	0.128	0.141	0.156	0.171	0.187	0.206	0.228
x2 = 0.08908	0.202	0.215	0.23	0.25	0.274	0.301	0.33	0.358	0.393	0.431
x2 = 0.1436	0.339	0.36	0.385	0.418	0.457	0.501	0.546	0.592	0.646	0.707
x2 = 0.2068	0.502	0.533	0.571	0.62	0.679	0.743	0.807	0.874	0.953	1.04
x2 = 0.2812	0.667	0.713	0.764	0.826	0.904	0.984	1.07	1.16	1.26	1.39
x2 = 0.3698	0.851	0.906	0.981	1.07	1.18	1.29	1.4	1.51	1.65	1.8
x2 = 0.4772	1.02	1.08	1.18	1.29	1.42	1.56	1.69	1.84	2.01	2.19
x2 = 0.6101	1.16	1.24	1.36	1.5	1.65	1.81	1.97	2.15	2.35	2.56
x2 = 0.7788	1.22	1.32	1.47	1.64	1.81	2	2.19	2.4	2.63	2.87

Nc1cccc2ccncc12 + CCO + O
solubility (g/100 g solution)
Details	278.15 K	283.15 K	288.15 K	293.15 K	298.15 K	303.15 K	308.15 K	313.15 K	318.15 K	323.15 K
x2 = 0.04165	0.0455	0.0527	0.0604	0.0712	0.0812	0.0941	0.11	0.128	0.147	0.171
x2 = 0.08908	0.0727	0.084	0.0965	0.113	0.129	0.149	0.174	0.202	0.233	0.271
x2 = 0.1436	0.111	0.129	0.148	0.172	0.197	0.228	0.266	0.308	0.355	0.413
x2 = 0.2068	0.162	0.187	0.215	0.25	0.287	0.332	0.387	0.448	0.517	0.602
x2 = 0.2812	0.211	0.244	0.286	0.338	0.39	0.45	0.52	0.604	0.697	0.809
x2 = 0.3698	0.271	0.315	0.371	0.441	0.51	0.589	0.685	0.794	0.922	1.08
x2 = 0.4772	0.308	0.371	0.437	0.522	0.618	0.722	0.846	0.987	1.14	1.33
x2 = 0.6101	0.364	0.432	0.522	0.614	0.718	0.835	0.975	1.13	1.33	1.56
x2 = 0.7788	0.383	0.459	0.559	0.658	0.77	0.902	1.06	1.25	1.47	1.73

CC(=O)Oc1cccc2c1C(=O)c1c(OC(C)=O)cc(C(=O)O)cc1C2=O + CCOC(C)=O + CC(C)O
solubility (g/100 g solution)
Details	273.15 K	278.15 K	283.15 K	288.15 K	293.15 K	298.15 K	303.15 K	308.15 K	313.15 K
x2 = 0.07045	0.0064	0.00841	0.0107	0.014	0.0178	0.0215	0.0261	0.0309	0.0362
x2 = 0.1457	0.00881	0.0112	0.0142	0.0177	0.0216	0.0261	0.031	0.0367	0.0431
x2 = 0.2262	0.0102	0.0132	0.0164	0.0199	0.0246	0.0305	0.0368	0.0448	0.0539
x2 = 0.3126	0.0121	0.0158	0.0197	0.0245	0.0299	0.0359	0.0439	0.0522	0.062
x2 = 0.4055	0.0132	0.0175	0.0224	0.0279	0.0338	0.0406	0.0489	0.0583	0.069
x2 = 0.5057	0.0164	0.0205	0.0253	0.0305	0.0368	0.0435	0.0512	0.0598	0.0693
x2 = 0.6141	0.0209	0.026	0.0317	0.0375	0.0445	0.0521	0.0612	0.0702	0.0806
x2 = 0.7318	0.0254	0.0303	0.0368	0.0441	0.0516	0.06	0.0692	0.0796	0.0906
x2 = 0.8599	0.0219	0.0263	0.0318	0.0379	0.0443	0.0515	0.0599	0.0686	0.0779

CC(=O)Oc1cccc2c1C(=O)c1c(OC(C)=O)cc(C(=O)O)cc1C2=O + CCOC(C)=O + CCO
solubility (g/100 g solution)
Details	273.15 K	278.15 K	283.15 K	288.15 K	293.15 K	298.15 K	303.15 K	308.15 K	313.15 K
x2 = 0.05491	0.00668	0.0091	0.0121	0.016	0.0207	0.0262	0.0328	0.04	0.0477
x2 = 0.1156	0.00776	0.0107	0.0144	0.0188	0.0241	0.0303	0.0382	0.0464	0.0564
x2 = 0.1831	0.015	0.0183	0.022	0.0265	0.0324	0.0391	0.0465	0.0555	0.0662
x2 = 0.2585	0.0202	0.0259	0.0317	0.0381	0.045	0.0534	0.0632	0.0734	0.0846
x2 = 0.3434	0.0268	0.0331	0.0402	0.0487	0.0574	0.067	0.078	0.0898	0.103
x2 = 0.4396	0.033	0.0398	0.0471	0.0563	0.0659	0.0773	0.0893	0.103	0.118
x2 = 0.5496	0.0337	0.0411	0.0496	0.0593	0.0698	0.0813	0.0934	0.109	0.125
x2 = 0.6765	0.0349	0.0419	0.0506	0.0609	0.0723	0.0849	0.0975	0.112	0.127
x2 = 0.8247	0.0222	0.0276	0.0334	0.0401	0.048	0.0562	0.0655	0.0763	0.087
